In assay [1] the test system is Pseudotyped HCV GT1b particles (HCVpp), entry into Huh7-high CD81 cells. As to the kind of experiment: microbe, parasite or virus in culture. The format is cell-based, HCV GT1b Con1 strain. The settings on record: Hepatitis C virus, GT1B, 72 h, read-out: HCVpp GT-1b (EC50, μM).
Assay [2] has as its system pseudotyped VSV G particles (VSVpp) in Huh7-high CD81 cells. As to the kind of experiment: microbe, parasite or virus in culture. The settings on record: Vesicular stomatitis virus, 72 h, read-out: VSVpp (EC50, μM). The format is cell-based, vesicular stomatitis virus.

Counter-ions that a name gives are not always drawn.

Regarding `CC1(NS(=O)(=O)c2ccc(-c3c(Cl)cc(Nc4n[nH]c(N)n4)cc3C(F)(F)F)cc2)CC1` [Compound 206, 4′-(5-amino-1H-1,2,4-triazol-3-ylamino)-2′-chloro-N-(1-methylcyclopropyl)-6′-(trifluoromethyl)biphenyl-4-sulfonamide], the EC50 (in general, the concentration at which the effect is half-maximal) in assay [1] was 0.017 µM; in assay [2], 9.62 µM.

As to `CN(CCOc1ccc(-c2c(Cl)cc(Nc3n[nH]c(N)n3)cc2Cl)cc1)C(=O)OC(C)(C)C` [Compound 261, {2-[4′-(5-Amino-1H-[1,2,4]triazol-3-ylamino)-2′,6′-dichloro-biphenyl-4-yloxy]-ethyl}-methyl-carbamic acid tert-butyl ester], the figures for the EC50 in assay [1] and in assay [2] were 0.033 µM and 4.26 µM, respectively.

Take `COc1ccc(-c2c(Cl)cc(Nc3n[nH]c(N)n3)cc2C(F)(F)F)cc1OC(C)C` [Compound 229, N*3*-(6-Chloro-3′-isopropoxy-4′-methoxy-2-trifluoromethyl-biphenyl-4-yl)-1H-[1,2,4]triazole-3,5-diamine]: the EC50 is 0.072 µM in assay [1] and 6.47 µM in assay [2].

Consider `N#Cc1ccc(-c2c(F)cc(Nc3nc(N)n[nH]3)cc2F)cc1` [Compound 87], for which the EC50 is 0.696 µM in assay [1] and more than 10 µM in assay [2].

With `Nc1n[nH]c(Nc2cc(F)c(-c3ccc(S(=O)(=O)N4CCOCC4)cc3)c(F)c2)n1` [Compound 77, N^5-(2,6-difluoro-4′-(morpholine-4-sulfonyl)biphenyl-4-yl)-1H-[1,2,4]-triazole-3,5-diamine], the EC50 in assay [1] is 0.19 µM; in assay [2] it was 24.7 µM.

Regarding `CC(C)(C)CCN1CCCC(S(=O)(=O)c2ccc(-c3c(Cl)cc(Nc4n[nH]c(N)n4)cc3C(F)(F)F)cc2)C1` (centres unmarked) [Compound 17, N*3*-{2-Chloro-4′-[1-(3,3-dimethyl-butyl)-piperidine-3-sulfonyl]-6-trifluoromethyl-biphenyl-4-yl}-1H-[1,2,4]triazole-3,5-diamine; hydrochloride], the EC50 in assay [1] was 0.043 µM; in assay [2], 4.9 µM.

For the compound `CS(=O)(=O)n1ccc2c(-c3c(Cl)cc(Nc4n[nH]c(N)n4)cc3Cl)cccc21` [Compound 15, N*3*-[3,5-Dichloro-4-(1-methanesulfonyl-1H-indol-4-yl)-phenyl]-1H-[1,2,4]triazole-3,5-diamine], the EC50 was found to be 0.05 µM in assay [1] and 0.23 µM in assay [2].

As for `CC(C)(C)N1Cc2ccc(-c3c(Cl)cc(Nc4n[nH]c(N)n4)cc3C(F)(F)F)cc2S1(=O)=O` [Compound 10, N*3*-[4-(2-tert-Butyl-1,1-dioxo-2,3-dihydro-1H-1lambda*6*-benzo[d]isothiazol-6-yl)-3-chloro-5-trifluoromethyl-phenyl]-1H-[1,2,4]triazole-3,5-diamine], the EC50 in assay [1] is 0.015 µM; in assay [2], more than 10 µM.

Consider `Nc1nc(Nc2ccc(-c3ccc(F)c(F)c3)c(C(F)(F)F)c2)n[nH]1` [Compound 152, N*3*-(3′,4′-Difluoro-2-trifluoromethyl-biphenyl-4-yl)-1H-[1,2,4]triazole-3,5-diamine], for which the EC50 in assay [1] came to 0.575 µM; in assay [2], 20.4 µM.

For the compound `COc1ccc(-c2c(Cl)cc(Nc3n[nH]c(N)n3)cc2C(F)(F)F)cc1S(=O)(=O)NC1CCN(C(=O)OC(C)(C)C)CC1` [Compound 221, 4-[4′-(5-Amino-1H-[1,2,4]triazol-3-ylamino)-6′-chloro-4-methoxy-2′-trifluoromethyl-biphenyl-3-sulfonylamino]-piperidine-1-carboxylic acid tert-butyl ester], the EC50 in assay [1] was found to be 0.003 µM; in assay [2] it was 4.55 µM.

On to `CNC(=O)c1ccc(-c2c(Cl)cc(Nc3n[nH]c(N)n3)cc2C(F)(F)F)cc1F` [Compound 291, 4′-(5-amino-1H-1,2,4-triazol-3-ylamino)-2′-chloro-3-fluoro-N-methyl-6′-(trifluoromethyl)biphenyl-4-carboxamide], for which the figures for the EC50 in assay [1] and in assay [2] were 0.325 µM and 21.5 µM, respectively.

Consider `COc1ccc(-c2c(Cl)cc(Nc3n[nH]c(N)n3)cc2C(F)(F)F)cc1C(F)(F)F` [Compound 231, N*3*-(6-Chloro-4′-methoxy-2,3′-bis-trifluoromethyl-biphenyl-4-yl)-1H-[1,2,4]triazole-3,5-diamine], for which the results for the EC50 in assay [1] and in assay [2] were 0.41 µM and more than 10 µM, respectively.

`CC(C)(C)CCN1CCC(S(=O)(=O)c2ccc(-c3c(Cl)cc(Nc4n[nH]c(N)n4)cc3C(F)(F)F)cc2)CC1` [Compound 5, N*3*-{2-Chloro-4′-[1-(3,3-dimethyl-butyl)-piperidine-4-sulfonyl]-6-trifluoromethyl-biphenyl-4-yl}-1H-[1,2,4]triazole-3,5-diamine; hydrochloride]: the EC50 was 0.005 µM in assay [1] and more than 10 µM in assay [2].

On to `CC(C)(C)N(CC(F)(F)F)S(=O)(=O)c1ccc(-c2c(Cl)cc(Nc3n[nH]c(N)n3)cc2C(F)(F)F)cc1` [Compound 223, 4′-(5-Amino-1H-[1,2,4]triazol-3-ylamino)-6′-chloro-2′-trifluoromethyl-biphenyl-4-sulfonic acid tert-butyl-(2,2,2-trifluoro-ethyl)-amide], for which the EC50 is 0.029 µM in assay [1] and 9.8 µM in assay [2].

Turning to `Nc1nc(Nc2cc(Cl)c(-c3ccc(S(=O)(=O)N4CCOCC4)cc3)c(C(F)(F)F)c2)n[nH]1` [Compound 36, N*3*-[2-Chloro-4′-(morpholine-4-sulfonyl)-6-trifluoromethyl-biphenyl-4-yl]-1H-[1,2,4]triazole-3,5-diamine], the EC50 is 0.096 µM in assay [1] and 14.2 µM in assay [2].

Regarding `CS(=O)(=O)c1ccc(-c2ccc(Nc3n[nH]c(N)n3)cc2C(F)(F)F)cc1` [Compound 90, N3-(4′-(methylsulfonyl)-2-(trifluoromethyl)biphenyl-4-yl)-1H-1,2,4-triazole-3,5-diamine], the EC50 in assay [1] amounted to 0.875 µM; in assay [2] it was 15.7 µM.

On to `CC(C)CCS(=O)(=O)c1ccc(-c2c(Cl)cc(Nc3n[nH]c(N)n3)cc2C(F)(F)F)cc1` [Compound 61, N*3*-[6-Chloro-4′-(3-methyl-butane-1-sulfonyl)-2-trifluoromethyl-biphenyl-4-yl]-1H-1,2,4-triazole-3,5-diamine], for which the EC50 was 0.013 µM in assay [1] and more than 10 µM in assay [2].

In the case of `Nc1nc(Nc2cc(Cl)c(-c3ccc(OC4CCNCC4)cc3)c(Cl)c2)n[nH]1` [Compound 262, N*3*-[2,6-Dichloro-4′-(piperidin-4-yloxy)-biphenyl-4-yl]-1H-[1,2,4]triazole-3,5-diamine], the EC50 in assay [1] stood at 0.05 µM; in assay [2] it was 4.87 µM.

Take `CS(=O)(=O)c1ccc(-c2ccc(Nc3n[nH]c(N)n3)cc2Cl)c(F)c1` [Compound 157, N3-(2-chloro-2′-fluoro-4′-(methylsulfonyl)biphenyl-4-yl)-1H-1,2,4-triazole-3,5-diamine]: the EC50 in assay [1] worked out at 1.33 µM; in assay [2], 5.16 µM.

`CC1(NS(=O)(=O)c2ccc(-c3c(Cl)cc(Nc4n[nH]c(N)n4)cc3C(F)(F)F)cc2)CNC1` [Compound 207, 4′-(5-amino-1H-1,2,4-triazol-3-ylamino)-2′-chloro-N-(3-methylazetidin-3-yl)-6′-(trifluoromethyl)biphenyl-4-sulfonamide hydrochloride]: the EC50 was 0.029 µM in assay [1] and more than 10 µM in assay [2].

As for `Nc1nc(Nc2cc(Cl)c(-c3ccc(NC(=O)C4CCS(=O)(=O)CC4)cc3)c(C(F)(F)F)c2)n[nH]1` [Compound 239], the EC50 in assay [1] is 0.122 µM; in assay [2], more than 10 µM.

`CC(C)(C)OC(=O)N1CCC(Oc2cccc(-c3c(Cl)cc(Nc4n[nH]c(N)n4)cc3C(F)(F)F)c2)CC1` [Compound 21, 4-[4′-(5-Amino-1H-[1,2,4]triazol-3-ylamino)-2′-chloro-6′-trifluoromethyl-biphenyl-3-yloxy]-piperidine-1-carboxylic acid tert-butyl ester]: the 50% effective concentration (EC50) was 0.039 µM in assay [1] and more than 10 µM in assay [2].

As to `Cc1ccc(-c2c(Cl)cc(Nc3n[nH]c(N)n3)cc2C(F)(F)F)cc1S(=O)(=O)NC(C)(C)C` [Compound 18, 4′-(5-Amino-1H-[1,2,4]triazol-3-ylamino)-2′-chloro-4-methyl-6′-trifluoromethyl-biphenyl-3-sulfonic acid tert-butylamide], the figures for the EC50 in assay [1] and in assay [2] were 0.032 µM and 3.47 µM, respectively.

As to `Nc1nc(Nc2cc(Cl)c(-c3cccc(OC4CCNCC4)c3)c(C(F)(F)F)c2)n[nH]1` [Compound 41, N*3*-[2-Chloro-3′-(piperidin-4-yloxy)-6-trifluoromethyl-biphenyl-4-yl]-1H-[1,2,4]triazole-3,5-diamine; hydrochloride], the EC50 in assay [1] is 0.166 µM; in assay [2], more than 10 µM.

Turning to `CS(=O)(=O)c1ccc(-c2ccc(Nc3n[nH]c(N)n3)cc2S(F)(F)(F)(F)F)cc1` [Compound 288, N*3*-(4′-Methanesulfonyl-2-pentafluorosulfur-biphenyl-4-yl)-1H-[1,2,4]triazole-3,5-diamine], the figures for the EC50 in assay [1] and in assay [2] were 1.23 µM and 8.93 µM, respectively.

Turning to `Nc1nc(Nc2cc(Cl)c(-c3ccc(S(=O)(=O)C4CNC4)cc3)c(C(F)(F)F)c2)n[nH]1` [Compound 67, N*3*-[4′-(Azetidine-3-sulfonyl)-6-chloro-2-trifluoromethyl-biphenyl-4-yl]-1H-[1,2,4]triazole-3,5-diamine hydrochloride], the EC50 in assay [1] was 0.107 µM; in assay [2] it was more than 10 µM.

As to `CC1(O)CN(S(=O)(=O)c2ccc(-c3c(Cl)cc(Nc4n[nH]c(N)n4)cc3C(F)(F)F)cc2)C1` [Compound 63, 1-[4′-(5-Amino-1H-[1,2,4]triazol-3-ylamino)-6′-chloro-2′-trifluoromethyl-biphenyl-4-sulfonyl]-3-methyl-azetidin-3-ol], the results for the EC50 in assay [1] and in assay [2] were 0.018 µM and 3.86 µM, respectively.

Consider `CC(C)(C)OC(=O)N1CCC(Oc2ccc(-c3c(Cl)cc(Nc4n[nH]c(N)n4)cc3Cl)cc2)CC1` [Compound 268, 4-[4′-(5-Amino-1H-[1,2,4]triazol-3-ylamino)-2′,6′-dichloro-biphenyl-4-yloxy]-piperidine-1-carboxylic acid tert-butyl ester], for which the EC50 is 0.17 µM in assay [1] and more than 10 µM in assay [2].

The values are drawn from patent US9693997B2, “Antiviral compounds” (priority 2013, dated 2017).
